In assay [1] the target is T1, von Hippel-Lindau disease tumor suppressor/L-lactate dehydrogenase A chain (Homo sapiens) (UniProt P00338+P40337). Nature of the assay: Protac activity at VHL E3 ligase/LDHA in human PANC-1 cells assessed as induction of LDHA degradation at 10 uM incubated for 48 hrs by Western blotting analysis. The format is cell-based. (In general: In western blotting, separated proteins are transferred to a membrane and probed.)

Assay [2] concerns PANC-1. Nature of the assay: Antiproliferative activity against human PANC-1 cells assessed as cell growth inhibition incubated for 72 hrs by WST-8 assay. It is filed as functional.
Assay [3] relates to MIA PaCa-2. Nature of the assay: Antiproliferative activity against human MIA PaCa-2 cells assessed as cell growth inhibition incubated for 72 hrs by WST-8 assay. It is filed as functional. For orientation: Formazan colour is commonly taken as a measure of viable cells.
Assay [4] has as its target T1, von Hippel-Lindau disease tumor suppressor/L-lactate dehydrogenase A chain (Homo sapiens). Put plainly: Protac activity at VHL E3 ligase/LDHA in human MIA PaCa-2 cells assessed as induction of LDHA degradation at 0.3 to 3 uM incubated for 24 hrs by Western blotting analysis. It is filed as cell-based. The following applies: dose 0.3-3 µM.
Assay [5] concerns BXPC-3. Put plainly: Antiproliferative activity against human BXPC-3 cells assessed as cell growth inhibition incubated for 72 hrs by WST-8 assay. It is filed as functional, cell-based.
The target of assay [6] is T1, von Hippel-Lindau disease tumor suppressor/L-lactate dehydrogenase A chain (Homo sapiens). Nature of the assay: Protac activity at VHL/LDHA in human BXPC-3 cells assessed as induction of LDHA degradation at 0.3 to 3 uM incubated for 24 hrs by Western blotting analysis. It is filed as cell-based. The following applies: dose 0.3-3 µM.
Assay [7] has as its target T2, L-lactate dehydrogenase A chain (Homo sapiens, UniProt P00338). Nature of the assay: Inhibition of recombinant human LDHA.
Assay [8] deals with T3, L-lactate dehydrogenase B chain (Homo sapiens, UniProt P07195). Put plainly: Inhibition of recombinant human LDHB.
The target in assay [9] is T2, L-lactate dehydrogenase A chain. Nature of the assay: Inhibition of human LDHA.
The target of assay [10] is T3, L-lactate dehydrogenase B chain. Nature of the assay: Inhibition of human LDHB.

One may read the GI50 as the concentration at which growth is held to half of that of the control. Broadly, the pIC50 is the IC50 on a negative log10 scale, so that one unit is a factor of ten.

Each structure is given as a SMILES string. pIC50: −log10 of the molar value. Calls of active or inactive are those of the source. The rule behind the calls is not given here. Some results are limits rather than exact numbers.

T3 sequence (P07195 whole entry): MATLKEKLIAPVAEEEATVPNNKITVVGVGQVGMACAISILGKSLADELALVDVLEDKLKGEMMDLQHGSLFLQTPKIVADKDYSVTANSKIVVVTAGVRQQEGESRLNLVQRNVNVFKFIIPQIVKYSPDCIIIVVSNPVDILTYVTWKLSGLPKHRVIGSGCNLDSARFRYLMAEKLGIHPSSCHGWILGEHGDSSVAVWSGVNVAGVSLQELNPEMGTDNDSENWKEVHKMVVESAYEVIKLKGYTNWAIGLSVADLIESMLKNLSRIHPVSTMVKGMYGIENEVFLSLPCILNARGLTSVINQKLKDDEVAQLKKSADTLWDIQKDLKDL

As to `Cc1ncsc1-c1ccc(CNC(=O)[C@@H]2C[C@@H](O)CN2C(=O)[C@@H](NC(=O)CCCCCCC(=O)NCCCCC#Cc2cccc(-c3nn(-c4nc(C(=O)O)cs4)c(CC4CC4)c3Cc3ccc(S(N)(=O)=O)cc3)c2)C(C)(C)C)cc1`, the outcome in [1] was Active.

Turning to `Cc1ncsc1-c1ccc(CNC(=O)[C@@H]2C[C@@H](O)CN2C(=O)[C@@H](NC(=O)CCCCC(=O)NCCCCC#Cc2cccc(-c3nn(-c4nc(C(=O)O)cs4)c(CC4CC4)c3Cc3ccc(S(N)(=O)=O)cc3)c2)C(C)(C)C)cc1`, in assay [1], the outcome was Active.

As for `NS(=O)(=O)c1ccc(Cc2c(-c3cccc(-c4ccccc4)c3)nn(-c3nc(C(=O)O)cs3)c2CC2CC2)cc1`, the GI50 in [2] and in assay [3] was over 30000 nM throughout. The outcome in assay [4] and in assay [6] was inactive. Further, the inhibition entry in assay [5] was “inactive”.

In the case of `Cc1ncsc1-c1ccc(CNC(=O)[C@@H]2C[C@@H](OCc3ccccc3)CN2C(=O)[C@@H](NC(=O)CCCCCCCCCCCC(=O)NCCCCC#Cc2cccc(-c3nn(-c4nc(C(=O)O)cs4)c(CC4CC4)c3Cc3ccc(S(N)(=O)=O)cc3)c2)C(C)(C)C)cc1`, the figures for the pIC50 in assay [7] and in assay [8] were 8.59 and 7.37, respectively.

On to `Cc1ccc(C#Cc2cccc(-c3nn(-c4nc(C(=O)O)cs4)c(CC4CC4)c3Cc3ccc(S(N)(=O)=O)c(F)c3)c2)s1`, for which the negative-log IC50 (pIC50) is 8.52 in [9] and 8.30 in assay [10].

Consider `Cc1ncsc1-c1ccc(CNC(=O)[C@@H]2C[C@@H](O)CN2C(=O)[C@@H](NC(=O)CCCCCC(=O)NCCCCC#Cc2cccc(-c3nn(-c4nc(C(=O)O)cs4)c(CC4CC4)c3Cc3ccc(S(N)(=O)=O)cc3)c2)C(C)(C)C)cc1`, for which the result in [1] was Active.

The record behind these values is ChEMBL document CHEMBL5316276, “Discovery of the First Lactate Dehydrogenase Proteolysis Targeting Chimera Degrader for the Treatment of Pancreatic Cancer” (J Med Chem, 2023).
